Key:
[1] = tested on: ABUTH (Velvetleaf); experiment: Postemergence herbicidal evaluation; assay type: in vivo, Abutilon theophrasti; conditions: postemergence
Method in brief: (§1)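 First, seedlings were raised for around two weeks. Next, test material in 50/50 acetone/water containing 0.5% TWEEN 20 was sprayed through a nozzle at 40 psi, equivalent to about 0.0156–0.500 kg/ha. Finally, after 4–5 weeks in the greenhouse, plants were rated 0–9.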

[2] = tested on: CHEAL (Lambsquarters, Common); experiment: Preemergence herbicidal evaluation; assay type: in vivo, Chenopodium album; conditions: rated 4-5 weeks after treatment; for CHEAL rating: preemergence, 0-9 scale
Method in brief: (§2)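 Preemergence soil application of compound, sprayed in aqueous acetone at rates equivalent to about 0.0156 to 0.500 kg per hectare onto freshly sown cups. Plant response was judged by eye on a 0-9 scale four to five weeks later.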

[3] = tested on: CHEAL (Lambsquarters, Common); experiment: Postemergence herbicidal evaluation; assay type: in vivo, Chenopodium album; conditions: postemergence
Method in brief: as §1

[4] = tested on: ABUTH (Velvetleaf); experiment: Preemergence herbicidal evaluation; assay type: in vivo, Abutilon theophrasti; conditions: rated 4-5 weeks after treatment; for ABUTH rating: preemergence, 0-9 scale
Method in brief: as §2

[5] = tested on: ZEAMX (Corn, Field); experiment: Preemergence herbicidal evaluation; assay type: in vivo, Zea mays; conditions: rated 4-5 weeks after treatment; for ZEAMX rating: preemergence, 0-9 scale
Method in brief: as §2

[6] = tested on: CASOB (Sicklepod); experiment: Preemergence herbicidal evaluation; assay type: in vivo, Cassia obtusifolia; conditions: rated 4-5 weeks after treatment; for CASOB rating: preemergence, 0-9 scale
Method in brief: as §2

[7] = tested on: ORYSAT (Rice, Tebonnet); experiment: Postemergence herbicidal evaluation; assay type: in vivo, Oryza sativa, (L.) Tebonnet; conditions: postemergence
Method in brief: as §1

[8] = tested on: CYPIR (Rice Flatsedge); experiment: Postemergence weed control under flooded paddy conditions; assay type: in vivo, Cyperus iria; conditions: postemergence weeds, rated 3 to 4 weeks after treatment
Method in brief: (§3)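 With weeds 3 to 5 cm tall and rice at the 1.5 to 2.5 leaf stage, containers were flooded and water held 1.5 to 3 cm above soil. Compounds in 50/50 v/v aqueous/acetone went into the flood water at about 0.0313 to 0.500 kg/ha a.i. Effects were visually rated 0–9 against controls after three to four weeks in the greenhouse.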

[9] = tested on: GLXMAW (Soybean, Williams); experiment: Preemergence herbicidal evaluation; assay type: in vivo, Glycine max, (L.) Merr. cv Williams; conditions: rated 4-5 weeks after treatment; for GLXMAW rating: preemergence, 0-9 scale
Method in brief: as §2

[10] = tested on: CYPSE (Flatsedge); experiment: Postemergence weed control under flooded paddy conditions; assay type: in vivo, Cyperus serotinus; conditions: postemergence weeds, rated 3 to 4 weeks after treatment
Method in brief: as §3

[11] = tested on: ECHCG (Barnyardgrass); experiment: Postemergence herbicidal evaluation; assay type: in vivo, Echinochloa crus-galli; conditions: postemergence
Method in brief: as §1

[12] = tested on: ECHCG (Barnyardgrass); experiment: Preemergence herbicidal evaluation; assay type: in vivo, Echinochloa crus-galli; conditions: rated 4-5 weeks after treatment; for ECHCG rating: preemergence, 0-9 scale
Method in brief: as §2

[13] = tested on: IPOHE (Morningglory, Ivyleaf); experiment: Postemergence herbicidal evaluation; assay type: in vivo, Ipomoea hederacea; conditions: postemergence
Method in brief: as §1

[14] = tested on: ZEAMX (Corn, Field); experiment: Postemergence herbicidal evaluation; assay type: in vivo, Zea mays; conditions: postemergence
Method in brief: as §1

[15] = tested on: TRZAWR (Wheat, Winter, cv Riband); experiment: Preemergence herbicidal evaluation; assay type: in vivo, Triticum aestivum; conditions: rated 4-5 weeks after treatment; for TRZAWR rating: preemergence, 0-9 scale
Method in brief: as §2

[16] = tested on: SETVI (Foxtail, Green); experiment: Postemergence herbicidal evaluation; assay type: in vivo, Setaria viridis; conditions: postemergence
Method in brief: as §1

[17] = tested on: IPOHE (Morningglory, Ivyleaf); experiment: Preemergence herbicidal evaluation; assay type: in vivo, Ipomoea hederacea; conditions: rated 4-5 weeks after treatment; for IPOHE rating: preemergence, 0-9 scale
Method in brief: as §2

COC(=O)[C@H](Cc1ccc([N+](=O)[O-])cc1)N1C(=O)CSC1=Nc1cc(-n2c(=O)cc(C(F)(F)F)n(C)c2=O)c(F)cc1Cl [Compound 78, Methyl 2-{{2-chloro-5-[3,6-dihydro-3-methyl-2,6-dioxo-4-(trifluoromethyl)-1(2H)-pyrimidinyl]-4-fluorophenyl}imino}-4-oxo-α-(p-nitrobenzyl)-3-thiazolidineacetate, L-]
4.5: ZEAMX herbicidal rating ([14]; rate 0.0158 kg/ha)
3.5: ORYSAT herbicidal rating ([7]; rate 0.0315 kg/ha)
0.0: Preemergence herbicidal rating ABUTH ([4]; rate 0.0156 kg/ha) | Preemergence herbicidal rating ABUTH ([4]; rate 0.0313 kg/ha) | Preemergence herbicidal rating ABUTH ([4]; rate 0.0625 kg/ha) | Preemergence herbicidal rating ZEAMX ([5]; rate 0.0156 kg/ha) | Preemergence herbicidal rating ZEAMX ([5]; rate 0.0313 kg/ha) | Preemergence herbicidal rating ZEAMX ([5]; rate 0.0625 kg/ha) | Preemergence herbicidal rating ZEAMX ([5]; rate 0.1250 kg/ha) | Preemergence herbicidal rating CASOB ([6]; rate 0.0313 kg/ha) | Preemergence herbicidal rating CASOB ([6]; rate 0.0625 kg/ha) | Preemergence herbicidal rating CASOB ([6]; rate 0.1250 kg/ha) | Preemergence herbicidal rating GLXMAW ([9]; rate 0.0313 kg/ha) | Preemergence herbicidal rating GLXMAW ([9]; rate 0.0625 kg/ha) | Preemergence herbicidal rating GLXMAW ([9]; rate 0.1250 kg/ha) | Preemergence herbicidal rating ECHCG ([12]; rate 0.0156 kg/ha) | Preemergence herbicidal rating ECHCG ([12]; rate 0.0313 kg/ha) | Preemergence herbicidal rating ECHCG ([12]; rate 0.0625 kg/ha) | Preemergence herbicidal rating ECHCG ([12]; rate 0.1250 kg/ha) | Preemergence herbicidal rating TRZAWR ([15]; rate 0.0156 kg/ha) | Preemergence herbicidal rating TRZAWR ([15]; rate 0.0313 kg/ha) | Preemergence herbicidal rating TRZAWR ([15]; rate 0.0625 kg/ha) | Preemergence herbicidal rating TRZAWR ([15]; rate 0.1250 kg/ha) | Preemergence herbicidal rating TRZAWR ([15]; rate 0.2500 kg/ha) | Preemergence herbicidal rating IPOHE ([17]; rate 0.0156 kg/ha) | Preemergence herbicidal rating IPOHE ([17]; rate 0.0313 kg/ha) | Preemergence herbicidal rating IPOHE ([17]; rate 0.0625 kg/ha) | Preemergence herbicidal rating IPOHE ([17]; rate 0.1250 kg/ha)
5.0: Herbicidal rating CYPIR ([8]; Rate 0.0313 kg/ha) | Herbicidal rating CYPIR ([8]; Rate 0.0625 kg/ha) | ZEAMX herbicidal rating ([14]; rate 0.0315 kg/ha) | ZEAMX herbicidal rating ([14]; rate 0.0630 kg/ha)
9.0: ABUTH herbicidal rating ([1]; rate 0.0315 kg/ha) | ABUTH herbicidal rating ([1]; rate 0.0630 kg/ha) | Preemergence herbicidal rating CHEAL ([2]; rate 0.0156 kg/ha) | Preemergence herbicidal rating CHEAL ([2]; rate 0.0313 kg/ha) | Preemergence herbicidal rating CHEAL ([2]; rate 0.0625 kg/ha) | Preemergence herbicidal rating CHEAL ([2]; rate 0.1250 kg/ha) | Preemergence herbicidal rating CHEAL ([2]; rate 0.2500 kg/ha) | CHEAL herbicidal rating ([3]; rate 0.0158 kg/ha) | CHEAL herbicidal rating ([3]; rate 0.0315 kg/ha) | CHEAL herbicidal rating ([3]; rate 0.0630 kg/ha) | Preemergence herbicidal rating ABUTH ([4]; rate 0.2500 kg/ha) | Herbicidal rating CYPIR ([8]; Rate 0.2500 kg/ha) | Herbicidal rating CYPSE ([10]; Rate 0.2500 kg/ha) | IPOHE herbicidal rating ([13]; rate 0.0158 kg/ha) | IPOHE herbicidal rating ([13]; rate 0.0315 kg/ha) | IPOHE herbicidal rating ([13]; rate 0.0630 kg/ha)
7.0: ABUTH herbicidal rating ([1]; rate 0.0158 kg/ha) | Herbicidal rating CYPSE ([10]; Rate 0.1250 kg/ha)
1.0: Preemergence herbicidal rating ZEAMX ([5]; rate 0.2500 kg/ha) | Preemergence herbicidal rating CASOB ([6]; rate 0.2500 kg/ha) | Preemergence herbicidal rating GLXMAW ([9]; rate 0.0156 kg/ha) | Preemergence herbicidal rating GLXMAW ([9]; rate 0.2500 kg/ha) | ECHCG herbicidal rating ([11]; rate 0.0158 kg/ha) | ECHCG herbicidal rating ([11]; rate 0.0315 kg/ha) | ECHCG herbicidal rating ([11]; rate 0.0630 kg/ha) | Preemergence herbicidal rating ECHCG ([12]; rate 0.2500 kg/ha) | SETVI herbicidal rating ([16]; rate 0.0158 kg/ha) | SETVI herbicidal rating ([16]; rate 0.0315 kg/ha) | SETVI herbicidal rating ([16]; rate 0.0630 kg/ha)
4.0: ORYSAT herbicidal rating ([7]; rate 0.0630 kg/ha)
3.0: ORYSAT herbicidal rating ([7]; rate 0.0158 kg/ha) | Preemergence herbicidal rating IPOHE ([17]; rate 0.2500 kg/ha)
2.0: Preemergence herbicidal rating ABUTH ([4]; rate 0.1250 kg/ha)
6.0: Herbicidal rating CYPIR ([8]; Rate 0.1250 kg/ha) | Herbicidal rating CYPSE ([10]; Rate 0.0313 kg/ha) | Herbicidal rating CYPSE ([10]; Rate 0.0625 kg/ha)

COC(=O)C1(N2C(=O)CSC2=Nc2cc(-n3c(=O)cc(C(F)(F)F)n(C)c3=O)c(F)cc2Cl)CCCCC1 [Compound 81, Methyl 1-{2-{{2-chloro-5-[3,6-dihydro-3-methyl-2,6-dioxo-4-(trifluoromethyl)-1(2H)-pyrimidinyl]-4-fluorophenyl}imino}-4-oxo-3-thiazolidinyl}-cyclohexanecarboxylate]
0.0: ZEAMX rating ([5]; 0.0313 kg/ha) | CASOB rating ([6]; 0.0313 kg/ha) | CASOB rating ([6]; 0.1250 kg/ha) | CASOB rating ([6]; 0.2500 kg/ha) | GLXMAW rating ([9]; 0.0313 kg/ha) | Herbicidal rating CYPSE ([10]; Rate 0.0625 kg/ha) | Herbicidal rating CYPSE ([10]; Rate 0.1250 kg/ha) | Herbicidal rating CYPSE ([10]; Rate 0.2500 kg/ha) | ECHCG rating ([12]; 0.0313 kg/ha) | ECHCG rating ([12]; 0.0625 kg/ha) | ECHCG rating ([12]; 0.1250 kg/ha) | TRZAWR rating ([15]; 0.0313 kg/ha) | TRZAWR rating ([15]; 0.0625 kg/ha) | IPOHE rating ([17]; 0.0313 kg/ha)
5.5: ORYSAT herbicidal rating ([7]; rate 0.0630 kg/ha)
2.0: ZEAMX rating ([5]; 0.0625 kg/ha) | ZEAMX rating ([5]; 0.1250 kg/ha) | ZEAMX rating ([5]; 0.2500 kg/ha) | GLXMAW rating ([9]; 0.0625 kg/ha) | ECHCG herbicidal rating ([11]; rate 0.0315 kg/ha)
3.0: CHEAL herbicidal rating ([3]; rate 0.0315 kg/ha) | GLXMAW rating ([9]; 0.2500 kg/ha)
1.0: GLXMAW rating ([9]; 0.1250 kg/ha) | ECHCG herbicidal rating ([11]; rate 0.0158 kg/ha) | ECHCG rating ([12]; 0.2500 kg/ha) | TRZAWR rating ([15]; 0.1250 kg/ha) | TRZAWR rating ([15]; 0.2500 kg/ha) | SETVI herbicidal rating ([16]; rate 0.0158 kg/ha) | SETVI herbicidal rating ([16]; rate 0.0315 kg/ha) | IPOHE rating ([17]; 0.1250 kg/ha)
9.0: ABUTH herbicidal rating ([1]; rate 0.0630 kg/ha) | CHEAL rating ([2]; 0.0625 kg/ha) | CHEAL rating ([2]; 0.1250 kg/ha) | CHEAL rating ([2]; 0.2500 kg/ha) | ABUTH rating ([4]; 0.0313 kg/ha) | ABUTH rating ([4]; 0.0625 kg/ha) | ABUTH rating ([4]; 0.1250 kg/ha) | ABUTH rating ([4]; 0.2500 kg/ha) | IPOHE herbicidal rating ([13]; rate 0.0158 kg/ha) | IPOHE herbicidal rating ([13]; rate 0.0315 kg/ha) | IPOHE herbicidal rating ([13]; rate 0.0630 kg/ha) | SETVI herbicidal rating ([16]; rate 0.0630 kg/ha) | IPOHE rating ([17]; 0.2500 kg/ha)
7.0: ABUTH herbicidal rating ([1]; rate 0.0158 kg/ha) | ABUTH herbicidal rating ([1]; rate 0.0315 kg/ha) | CHEAL rating ([2]; 0.0313 kg/ha) | ZEAMX herbicidal rating ([14]; rate 0.0315 kg/ha) | ZEAMX herbicidal rating ([14]; rate 0.0630 kg/ha)
5.0: Herbicidal rating CYPIR ([8]; Rate 0.1250 kg/ha) | Herbicidal rating CYPIR ([8]; Rate 0.2500 kg/ha)
6.0: ECHCG herbicidal rating ([11]; rate 0.0630 kg/ha)
4.0: CHEAL herbicidal rating ([3]; rate 0.0158 kg/ha) | Herbicidal rating CYPIR ([8]; Rate 0.0625 kg/ha)
4.5: ORYSAT herbicidal rating ([7]; rate 0.0158 kg/ha) | ORYSAT herbicidal rating ([7]; rate 0.0315 kg/ha)
6.5: ZEAMX herbicidal rating ([14]; rate 0.0158 kg/ha)
